ChEMBL document CHEMBL3808279, “Sequential one-pot synthesis of bis(indolyl)glyoxylamides: Evaluation of antibacterial and anticancer activities” (Bioorg Med Chem Lett, 2016)
In brackets after ≈: the same amount, converted by molar mass. Activity calls are given as the source filed them. The rule behind the calls is not given here.

Assays:
Klebsiella pneumoniae = assay: Antibacterial activity against Klebsiella pneumoniae after 18 to 24 hrs by microbroth dilution method; assay type: functional; settings: for MIC: Klebsiella pneumoniae
[1] = Cytotoxicity against human BxPC3 cells after 48 hrs by MTT assay; assay type: functional, cell-based; settings: BXPC-3, 48 h
[2] = Cytotoxicity against human C4-2 cells after 48 hrs by MTT assay; assay type: functional, cell-based; settings: LNCaP C4-2, 48 h
Bacillus subtilis [3] = assay: Antibacterial activity against Bacillus subtilis after 18 to 24 hrs by microbroth dilution method; assay type: functional; settings: for MIC: Bacillus subtilis
MDA-MB-231 = assay: Cytotoxicity against human MDA-MB-231 cells after 48 hrs by MTT assay; assay type: functional, cell-based; settings: MDA-MB-231, 48 h
Escherichia coli [4] = assay: Antibacterial activity against Escherichia coli after 18 to 24 hrs by microbroth dilution method; assay type: functional; settings: for MIC: Escherichia coli
[5] = Cytotoxicity against human PC3 cells after 48 hrs by MTT assay; assay type: functional, cell-based; settings: PC-3, 48 h
Staphylococcus aureus [6] = assay: Antibacterial activity against Staphylococcus aureus after 18 to 24 hrs by microbroth dilution method; assay type: functional; settings: for MIC: Staphylococcus aureus
[7] = Cytotoxicity against human HEK293T cells after 48 hrs by MTT assay; assay type: cell-based; settings: HEK-293T
HeLa = assay: Cytotoxicity against human HeLa cells after 48 hrs by MTT assay; assay type: functional, cell-based
Pseudomonas putida [8] = assay: Antibacterial activity against Pseudomonas putida after 18 to 24 hrs by microbroth dilution method; assay type: functional; settings: for MIC: Pseudomonas putida
[9] = target: Cyclin-dependent kinase 4 (Homo sapiens, UniProt P11802); assay: Inhibition of CDK4 (unknown origin)
Chain of Cyclin-dependent kinase 4 (P11802 whole entry): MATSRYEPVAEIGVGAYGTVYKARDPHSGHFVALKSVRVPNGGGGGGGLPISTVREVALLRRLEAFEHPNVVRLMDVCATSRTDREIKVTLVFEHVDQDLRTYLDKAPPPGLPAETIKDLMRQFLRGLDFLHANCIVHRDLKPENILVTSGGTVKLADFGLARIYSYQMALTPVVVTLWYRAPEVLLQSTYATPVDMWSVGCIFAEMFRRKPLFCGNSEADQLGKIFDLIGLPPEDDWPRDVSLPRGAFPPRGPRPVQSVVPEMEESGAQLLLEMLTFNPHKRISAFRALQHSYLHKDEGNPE

[10] = target: Receptor tyrosine-protein kinase erbB-2 (Homo sapiens, UniProt P04626); assay: Inhibition of c-erbB2 (unknown origin)
Chain of Receptor tyrosine-protein kinase erbB-2 (P04626 whole entry): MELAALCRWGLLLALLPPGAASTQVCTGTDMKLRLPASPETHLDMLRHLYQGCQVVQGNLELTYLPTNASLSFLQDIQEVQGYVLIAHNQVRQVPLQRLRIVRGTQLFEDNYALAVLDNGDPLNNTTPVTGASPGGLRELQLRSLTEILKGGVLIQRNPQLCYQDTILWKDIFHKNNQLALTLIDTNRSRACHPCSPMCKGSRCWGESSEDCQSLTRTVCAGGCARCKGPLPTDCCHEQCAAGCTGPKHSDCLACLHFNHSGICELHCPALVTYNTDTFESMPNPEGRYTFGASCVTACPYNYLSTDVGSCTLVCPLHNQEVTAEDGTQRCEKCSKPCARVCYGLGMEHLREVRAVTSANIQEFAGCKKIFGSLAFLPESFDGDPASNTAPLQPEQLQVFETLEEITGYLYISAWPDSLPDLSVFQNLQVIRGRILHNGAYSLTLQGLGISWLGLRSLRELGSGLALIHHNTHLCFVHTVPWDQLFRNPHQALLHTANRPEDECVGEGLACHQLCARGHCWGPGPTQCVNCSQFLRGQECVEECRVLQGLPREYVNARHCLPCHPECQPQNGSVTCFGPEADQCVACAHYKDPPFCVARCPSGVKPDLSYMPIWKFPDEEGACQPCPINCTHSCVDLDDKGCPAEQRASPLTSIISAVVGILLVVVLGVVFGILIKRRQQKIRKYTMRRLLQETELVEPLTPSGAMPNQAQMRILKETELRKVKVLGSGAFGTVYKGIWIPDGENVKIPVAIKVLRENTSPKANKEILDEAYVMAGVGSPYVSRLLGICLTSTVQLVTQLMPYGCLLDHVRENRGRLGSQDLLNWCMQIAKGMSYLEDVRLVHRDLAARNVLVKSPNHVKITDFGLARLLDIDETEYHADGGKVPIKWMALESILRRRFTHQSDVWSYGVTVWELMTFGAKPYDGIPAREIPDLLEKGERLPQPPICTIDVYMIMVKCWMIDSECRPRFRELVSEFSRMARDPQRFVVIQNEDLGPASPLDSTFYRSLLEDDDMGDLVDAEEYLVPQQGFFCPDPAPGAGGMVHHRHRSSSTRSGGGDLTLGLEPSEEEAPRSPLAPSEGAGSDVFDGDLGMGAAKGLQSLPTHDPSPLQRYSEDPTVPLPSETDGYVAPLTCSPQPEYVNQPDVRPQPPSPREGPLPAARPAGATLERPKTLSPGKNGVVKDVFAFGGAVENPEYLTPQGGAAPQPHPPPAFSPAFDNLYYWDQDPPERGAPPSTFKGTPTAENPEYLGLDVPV

[11] = Stability of compound at pH 4.5 up to 48 hrs by HPLC analysis; assay type: physicochemical; settings: buffer, pH 4.5, 48 h
Pseudomonas putida [12] = assay: Bactericidal activity against Pseudomonas putida at 3 times MIC after 2 hrs by time-kill analysis; assay type: functional
[13] = Stability of compound at pH 7.4 up to 48 hrs by HPLC analysis; assay type: physicochemical; settings: buffer, pH 7.4, 48 h
Bacillus subtilis [14] = assay: Bactericidal activity against Bacillus subtilis at 3 times MIC after 2 hrs by time-kill analysis; assay type: functional
Pseudomonas putida [15] = assay: Bactericidal activity against Pseudomonas putida assessed as maximum bactericidal reduction at 3 times MIC after 3 hrs by time-kill analysis; assay type: functional, organism-based
Escherichia coli [16] = assay: Bactericidal activity against Escherichia coli at 3 times MIC after 2 hrs by time-kill analysis; assay type: functional
Staphylococcus aureus [17] = assay: Bactericidal activity against Staphylococcus aureus at 3 times MIC after 2 hrs by time-kill analysis; assay type: functional
Escherichia coli [18] = assay: Bactericidal activity against Escherichia coli assessed as maximum bactericidal reduction at 3 times MIC after 3 hrs by time-kill analysis; assay type: functional, organism-based
[19] = Aqueous solubility of compound after 12 hrs by shake-flask method; assay type: physicochemical; settings: water
PC-3 = assay: Induction of apoptosis in human PC3 cells assessed as increase in cleaved PARP1 level after 48 hrs by immunoblot analysis; assay type: functional, cell-based

SMILES | inhibition zone (IZ) (Klebsiella pneumoniae) [mm] | MIC (Klebsiella pneumoniae) [µg/mL] | IC50 [1] [µM] | IC50 [2] [µM] | inhibition zone (IZ) (Bacillus subtilis [3]) [mm] | MIC (Bacillus subtilis [3]) [µg/mL] | IC50 (MDA-MB-231) [µM] | inhibition zone (IZ) (Escherichia coli [4]) [mm] | MIC (Escherichia coli [4]) [µg/mL] | IC50 [5] [µM] | inhibition zone (IZ) (Staphylococcus aureus [6]) [mm] | MIC (Staphylococcus aureus [6]) [µg/mL] | IC50 [7] [µM] | IC50 (HeLa) [µM] | inhibition zone (IZ) (Pseudomonas putida [8]) [mm] | MIC (Pseudomonas putida [8]) [µg/mL] | Stability [11] | Activity (Pseudomonas putida [12]) [%] | Stability [13] | Activity (Bacillus subtilis [14]) [%] | also measured
CCn1cc(C(=O)C(=O)NCCc2c[nH]c3ccccc23)c2ccccc21 | 13 | > 100 | > 100 | > 100 | 14 | 100 (≈ 278 µM) | > 100 | 14 | > 50 | > 100 | 14 | 100 (≈ 278 µM) | > 100 | > 100 | 12 | > 100 | – | – | – | – | –
O=C1N=C(C(=O)c2c[nH]c3ccccc23)N/C1=C\c1c[nH]c2cc(O)ccc12 | – | – | – | – | – | – | – | – | – | – | – | – | – | – | – | – | – | – | – | – | IC50 [9]: 33.8 µM; IC50 [10]: 20 µM
Cn1cc(C(=O)C(=O)NCCc2c[nH]c3ccccc23)c2ccccc21 | 17 | 25 (≈ 72.4 µM) | > 100 | > 100 | 18 | > 25 | > 100 | 18 | 12.5 (≈ 36.2 µM) | > 100 | 16 | 50 (≈ 145 µM) | > 100 | > 100 | 17 | > 25 | Stable | 80 | Stable | >80 | Activity (Pseudomonas putida [15]): Active; Activity (Escherichia coli [16]): 80%; Activity (Staphylococcus aureus [17]): >65%; Activity (Escherichia coli [18]): Active
O=C(NCCc1c[nH]c2ccccc12)C(=O)c1c[nH]c2ccc(F)cc12 | 18 | 12.5 (≈ 35.8 µM) | > 100 | > 100 | 18 | > 12.5 | > 100 | 20 | 12.5 (≈ 35.8 µM) | > 100 | 17 | 25 (≈ 71.6 µM) | > 100 | > 100 | 18 | 12.5 (≈ 35.8 µM) | Stable | 80 | Stable | >80 | solubility thermodynamic at 12 h [19]: 0.3 µg/mL (≈ 0.859 µM); Activity (Pseudomonas putida [15]): Active; Activity (Escherichia coli [16]): 80%; Activity (Staphylococcus aureus [17]): >65%; Activity (Escherichia coli [18]): Active
O=C(NCCc1c[nH]c2ccccc12)C(=O)c1cn(Cc2ccc(Cl)cc2)c2ccc(F)cc12 | 12 | > 100 | > 100 | > 100 | 13 | > 50 | > 100 | 14 | 100 (≈ 211 µM) | > 100 | 13 | 100 (≈ 211 µM) | > 100 | > 100 | 14 | 100 (≈ 211 µM) | – | – | – | – | –
O=C(NCCc1c[nH]c2ccccc12)C(=O)c1c[nH]c2cc(F)ccc12 | 14 | > 50 | 29.9 | 46 | – | – | 21.1 | 15 | 100 (≈ 286 µM) | 24.1 | – | – | 69.8 | 22.3 | 14 | > 100 | – | – | – | – | Activity (PC-3): Active
O=C(NCCc1c[nH]c2ccccc12)C(=O)c1c[nH]c2ccccc12 | 14 | 100 (≈ 302 µM) | 64 | 71.5 | 15 | 50 (≈ 151 µM) | 48.7 | 15 | 50 (≈ 151 µM) | 38.5 | 15 | 50 (≈ 151 µM) | 97.7 | 48.9 | 14 | 50 (≈ 151 µM) | – | – | – | – | Activity (PC-3): Active
O=C(NCCc1c[nH]c2ccccc12)C(=O)c1cn(Cc2ccc(Cl)cc2)c2ccccc12 | 18 | > 12.5 | > 100 | > 100 | 17 | > 25 | > 100 | 18 | 12.5 (≈ 27.4 µM) | > 100 | 17 | > 25 | > 100 | > 100 | 18 | 12.5 (≈ 27.4 µM) | Stable | 80 | Stable | >80 | Activity (Pseudomonas putida [15]): Active; Activity (Escherichia coli [16]): 80%; Activity (Staphylococcus aureus [17]): >65%; Activity (Escherichia coli [18]): Active
O=C(NCCc1c[nH]c2ccccc12)C(=O)c1cn(Cc2ccc(Cl)cc2)c2ccc(Br)cc12 | 14 | > 50 | > 100 | > 100 | 14 | 100 (≈ 187 µM) | > 100 | 15 | 100 (≈ 187 µM) | > 100 | 13 | 100 (≈ 187 µM) | > 100 | > 100 | 14 | > 100 | – | – | – | – | –
